pKi: −log10 of the molar value.
Experiments:
[1] = biological target: 5-hydroxytryptamine receptor 6 (Homo sapiens) (UniProt P50406); experiment: Displacement of [3H]LSD from human 5-HT6 receptor expressed in HEK cell membranes at 10 uM incubated for 90 mins under dark condition by microbeta scintillation counting method relative to control; details: HEK293
[2] = biological target: T1, 5-hydroxytryptamine receptor 1A (Homo sapiens) (UniProt P08908); experiment: Displacement of [3H]WAY100635 from human 5-HT1AR expressed in CHO cell membranes at 10 uM incubated for 90 mins under dark condition by microbeta scintillation counting method relative to control
T1 sequence (whole entry): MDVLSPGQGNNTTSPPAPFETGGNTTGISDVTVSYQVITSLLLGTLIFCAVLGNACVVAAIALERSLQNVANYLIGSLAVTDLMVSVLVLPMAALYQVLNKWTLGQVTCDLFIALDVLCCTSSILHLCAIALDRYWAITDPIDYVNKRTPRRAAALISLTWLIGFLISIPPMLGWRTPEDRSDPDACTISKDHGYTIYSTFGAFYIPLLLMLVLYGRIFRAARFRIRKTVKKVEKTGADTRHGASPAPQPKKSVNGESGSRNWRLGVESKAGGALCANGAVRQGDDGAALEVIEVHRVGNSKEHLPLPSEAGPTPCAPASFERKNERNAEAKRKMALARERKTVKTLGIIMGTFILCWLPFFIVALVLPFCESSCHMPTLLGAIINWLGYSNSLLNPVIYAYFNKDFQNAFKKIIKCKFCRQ

[3] = biological target: T2, 5-hydroxytryptamine receptor 2A (Homo sapiens, UniProt P28223); experiment: Displacement of [3H]ketanserin from human 5-HT2A receptor expressed in HEK-T cell membranes incubated for 90 mins under dark condition by microbeta scintillation counting method
[4] = biological target: 5-hydroxytryptamine receptor 4 (Homo sapiens) (UniProt Q13639); experiment: Displacement of [3H]GR113808 from human 5-HT4 receptor at 10 uM incubated for 90 mins under dark condition by microbeta scintillation counting method relative to control
[5] = biological target: 5-hydroxytryptamine receptor 1D (Homo sapiens) (UniProt P28221); experiment: Displacement of [3H]5-CT from human 5-HT1D receptor expressed in HEK-T cell membranes at 10 uM incubated for 90 mins under dark condition by microbeta scintillation counting method relative to control
[6] = biological target: T3, Adenosine receptor A3 (Mus musculus) (UniProt Q61618); experiment: Agonist activity at recombinant mouse A3AR expressed in HEK293 cells assessed as inhibition of forskolin-stimulated cAMP accumulation at 10 uM after 15 mins relative to adenosine-5'-N-ethyluronamide; type: functional, cell-based
T3 sequence (whole entry): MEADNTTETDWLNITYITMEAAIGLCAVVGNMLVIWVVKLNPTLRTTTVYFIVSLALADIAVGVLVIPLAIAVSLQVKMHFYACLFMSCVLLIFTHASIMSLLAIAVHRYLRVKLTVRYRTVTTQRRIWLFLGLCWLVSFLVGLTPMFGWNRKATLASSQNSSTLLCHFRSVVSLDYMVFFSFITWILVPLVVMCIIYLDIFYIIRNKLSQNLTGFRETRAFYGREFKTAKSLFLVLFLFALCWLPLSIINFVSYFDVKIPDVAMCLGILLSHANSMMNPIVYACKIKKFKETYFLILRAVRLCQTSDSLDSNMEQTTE

[7] = biological target: T4, 5-hydroxytryptamine receptor 3A (Homo sapiens) (UniProt P46098); experiment: Displacement of [3H]GR65630 from human 5-HT3 receptor expressed in HEK-T cell membranes at 10 uM incubated for 90 mins under dark condition by microbeta scintillation counting method relative to control
T4 sequence (whole entry): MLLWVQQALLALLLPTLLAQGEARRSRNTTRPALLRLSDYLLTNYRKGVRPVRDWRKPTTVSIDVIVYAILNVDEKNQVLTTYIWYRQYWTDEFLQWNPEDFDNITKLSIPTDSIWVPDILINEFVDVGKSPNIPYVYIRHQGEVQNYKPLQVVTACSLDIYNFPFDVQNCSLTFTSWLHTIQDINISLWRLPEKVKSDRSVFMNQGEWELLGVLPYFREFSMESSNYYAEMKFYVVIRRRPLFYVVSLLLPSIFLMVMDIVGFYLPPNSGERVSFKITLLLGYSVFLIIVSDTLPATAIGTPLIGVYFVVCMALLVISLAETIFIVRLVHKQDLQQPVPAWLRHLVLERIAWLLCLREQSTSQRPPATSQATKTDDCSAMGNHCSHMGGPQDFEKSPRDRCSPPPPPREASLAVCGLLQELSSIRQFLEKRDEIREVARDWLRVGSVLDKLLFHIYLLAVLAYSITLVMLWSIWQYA

[8] = biological target: 5-hydroxytryptamine receptor 1E (Homo sapiens) (UniProt P28566); experiment: Displacement of [3H]5-HT from human 5-HT1E receptor expressed in HEK cell membranes at 10 uM incubated for 90 mins under dark condition by microbeta scintillation counting method relative to control; details: HEK293
[9] = biological target: 5-hydroxytryptamine receptor 7 (Homo sapiens) (UniProt P34969); experiment: Displacement of [3H]LSD from human 5-HT7A receptor expressed in HEK cell membranes at 10 uM incubated for 90 mins under dark condition by microbeta scintillation counting method relative to control; details: HEK293
[10] = biological target: 5-hydroxytryptamine receptor 5A (Homo sapiens) (UniProt P47898); experiment: Displacement of [3H]LSD from human 5-HT5A receptor expressed in Flp-In-CHO cell membranes incubated for 90 mins under dark condition by microbeta scintillation counting method relative to control; parameters: concentration or dose not given beside the values
[11] = biological target: 5-hydroxytryptamine receptor 1B (Homo sapiens) (UniProt P28222); experiment: Displacement of [3H]5-CT from human 5-HT1BR expressed in HEK cell membranes at 10 uM incubated for 90 mins under dark condition by microbeta scintillation counting method relative to control; details: HEK293
[12] = Displacement of [3H]DTG from sigma2 receptor in rat PC12 cells after 90 mins by microbeta scintillation counting method; type: cell-based; details: pc-12
[13] = biological target: T5, 5-hydroxytryptamine receptor 2C (Homo sapiens) (UniProt P28335); experiment: Displacement of [3H]mesulergine from human 5-HT2CR expressed in Flp-In HEK cell membranes at 10 uM incubated for 90 mins under dark condition by microbeta scintillation counting method relative to control; details: HEK293
T5 sequence (whole entry): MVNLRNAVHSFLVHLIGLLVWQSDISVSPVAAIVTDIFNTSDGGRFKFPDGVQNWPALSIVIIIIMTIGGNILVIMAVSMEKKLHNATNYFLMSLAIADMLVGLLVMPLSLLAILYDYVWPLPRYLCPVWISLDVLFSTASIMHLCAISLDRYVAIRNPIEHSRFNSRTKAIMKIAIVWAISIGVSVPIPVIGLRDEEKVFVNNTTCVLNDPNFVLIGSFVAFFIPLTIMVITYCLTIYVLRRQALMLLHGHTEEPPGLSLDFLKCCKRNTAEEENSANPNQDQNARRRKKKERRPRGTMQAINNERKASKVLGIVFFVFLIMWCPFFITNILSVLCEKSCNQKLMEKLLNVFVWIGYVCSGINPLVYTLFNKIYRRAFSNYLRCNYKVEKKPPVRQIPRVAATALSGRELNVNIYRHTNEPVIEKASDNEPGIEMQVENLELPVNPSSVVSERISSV

[14] = biological target: 5-hydroxytryptamine receptor 2B (Homo sapiens, UniProt P41595); details: HEK293, at 10 µM
[15] = biological target: T2, 5-hydroxytryptamine receptor 2A; experiment: Displacement of [3H]ketanserin from human 5-HT2A receptor expressed in HEK-T cell membranes at 10 uM incubated for 90 mins under dark condition by microbeta scintillation counting method relative to control
Adenosine receptor A1 = biological target: T6, Adenosine receptor A1 (Homo sapiens, UniProt P30542); experiment: Displacement of [3H]N6-phenylisopropyladenosine from recombinant human A1AR expressed in CHO cell membranes after 60 mins by liquid scintillation counting method
T6 sequence (P30542 whole entry): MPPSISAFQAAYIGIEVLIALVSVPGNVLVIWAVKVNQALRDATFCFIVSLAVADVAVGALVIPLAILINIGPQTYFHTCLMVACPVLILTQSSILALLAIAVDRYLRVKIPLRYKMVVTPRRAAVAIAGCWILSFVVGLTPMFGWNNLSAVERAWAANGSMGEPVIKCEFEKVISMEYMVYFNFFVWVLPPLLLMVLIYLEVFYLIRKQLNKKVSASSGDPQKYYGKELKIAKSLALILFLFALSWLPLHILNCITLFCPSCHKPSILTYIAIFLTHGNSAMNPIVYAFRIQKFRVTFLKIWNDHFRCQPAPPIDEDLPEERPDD

[16] = biological target: T7, 5-hydroxytryptamine receptor 2C (Homo sapiens, UniProt P28335); experiment: Displacement of [3H]mesulergine from human 5-HT2CR expressed in Flp-In HEK cell membranes incubated for 90 mins under dark condition by microbeta scintillation counting method; parameters: species or system HEK293
T7 sequence (P28335 whole entry): T5 sequence (whole entry)

Adenosine receptor A2a = Adenosine receptor A2a (Homo sapiens, UniProt P29274); experiment: Displacement of [3 H]2-[p-(2-carboxyethyl)phenyl-ethylamino]-5'-N-ethylcarboxamidoadenosine from recombinant human adenosine receptor A2A expressed in HEK293 cell membranes after 60 mins by liquid scintillation counting method
Adenosine receptor A3 = biological target: T8, Adenosine receptor A3 (Homo sapiens, UniProt P0DMS8); experiment: Displacement of [125l]N 6-(4-amino-3-iodobenzyl)adenosine-5'-N-methyluronamide from recombinant human A3AR expressed in CHO cell membranes after 60 mins by gamma counting method
T8 sequence (P0DMS8 whole entry): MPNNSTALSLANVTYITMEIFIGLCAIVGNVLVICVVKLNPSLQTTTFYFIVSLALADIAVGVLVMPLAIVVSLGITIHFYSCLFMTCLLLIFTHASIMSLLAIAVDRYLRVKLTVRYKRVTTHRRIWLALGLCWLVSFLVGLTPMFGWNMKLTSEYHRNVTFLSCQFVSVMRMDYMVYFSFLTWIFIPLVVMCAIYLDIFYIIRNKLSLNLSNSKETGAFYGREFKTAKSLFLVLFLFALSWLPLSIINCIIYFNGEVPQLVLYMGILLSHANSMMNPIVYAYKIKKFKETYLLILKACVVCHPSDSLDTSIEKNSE

5-hydroxytryptamine receptor 1D (Homo sapiens), sequence (P28221 whole entry): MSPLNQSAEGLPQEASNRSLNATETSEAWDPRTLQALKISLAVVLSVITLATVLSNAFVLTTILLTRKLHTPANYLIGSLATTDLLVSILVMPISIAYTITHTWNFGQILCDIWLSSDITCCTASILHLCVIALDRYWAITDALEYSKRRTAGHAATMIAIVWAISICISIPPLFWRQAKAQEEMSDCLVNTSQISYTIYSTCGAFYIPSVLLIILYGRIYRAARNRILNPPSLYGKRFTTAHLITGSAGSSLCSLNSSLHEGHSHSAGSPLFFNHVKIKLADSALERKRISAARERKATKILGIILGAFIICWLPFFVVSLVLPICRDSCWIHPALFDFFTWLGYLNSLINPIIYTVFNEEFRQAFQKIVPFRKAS
5-hydroxytryptamine receptor 1B (Homo sapiens), sequence (P28222 whole entry): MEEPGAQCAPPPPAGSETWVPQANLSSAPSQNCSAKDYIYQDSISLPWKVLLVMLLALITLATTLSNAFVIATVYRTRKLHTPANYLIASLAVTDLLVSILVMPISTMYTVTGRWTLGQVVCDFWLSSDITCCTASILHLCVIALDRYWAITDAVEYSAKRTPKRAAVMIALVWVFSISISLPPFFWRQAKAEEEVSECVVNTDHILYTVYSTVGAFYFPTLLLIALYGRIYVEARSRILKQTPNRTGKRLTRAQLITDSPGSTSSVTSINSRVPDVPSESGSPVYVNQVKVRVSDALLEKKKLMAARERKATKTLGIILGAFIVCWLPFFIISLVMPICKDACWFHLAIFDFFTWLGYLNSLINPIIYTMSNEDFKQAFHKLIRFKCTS
5-hydroxytryptamine receptor 7 (Homo sapiens), sequence (P34969 whole entry): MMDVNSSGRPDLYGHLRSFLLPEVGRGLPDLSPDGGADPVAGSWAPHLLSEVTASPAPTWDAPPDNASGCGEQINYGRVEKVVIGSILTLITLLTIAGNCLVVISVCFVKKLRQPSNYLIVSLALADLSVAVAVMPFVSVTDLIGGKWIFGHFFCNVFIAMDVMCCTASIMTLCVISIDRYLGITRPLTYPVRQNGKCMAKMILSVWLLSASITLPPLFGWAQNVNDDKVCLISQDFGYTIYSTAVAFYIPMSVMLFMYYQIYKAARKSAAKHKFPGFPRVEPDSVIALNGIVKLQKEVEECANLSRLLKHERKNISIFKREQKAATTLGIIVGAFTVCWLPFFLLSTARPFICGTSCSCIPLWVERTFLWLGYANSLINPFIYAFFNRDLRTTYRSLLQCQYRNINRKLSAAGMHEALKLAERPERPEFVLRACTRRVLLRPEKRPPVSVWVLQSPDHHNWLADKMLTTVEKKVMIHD
5-hydroxytryptamine receptor 4 (Homo sapiens), sequence (Q13639 whole entry): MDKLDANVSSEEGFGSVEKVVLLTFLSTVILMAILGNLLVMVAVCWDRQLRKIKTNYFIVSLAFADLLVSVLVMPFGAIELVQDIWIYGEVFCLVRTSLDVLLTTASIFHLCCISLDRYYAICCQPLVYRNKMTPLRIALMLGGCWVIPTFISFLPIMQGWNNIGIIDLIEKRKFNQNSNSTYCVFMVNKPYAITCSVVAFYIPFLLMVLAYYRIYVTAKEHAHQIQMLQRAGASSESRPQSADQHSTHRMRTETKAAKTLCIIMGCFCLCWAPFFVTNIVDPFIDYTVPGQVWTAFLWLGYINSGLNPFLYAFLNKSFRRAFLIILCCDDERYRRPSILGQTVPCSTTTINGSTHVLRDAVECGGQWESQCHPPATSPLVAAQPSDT
T2 sequence (P28223 whole entry): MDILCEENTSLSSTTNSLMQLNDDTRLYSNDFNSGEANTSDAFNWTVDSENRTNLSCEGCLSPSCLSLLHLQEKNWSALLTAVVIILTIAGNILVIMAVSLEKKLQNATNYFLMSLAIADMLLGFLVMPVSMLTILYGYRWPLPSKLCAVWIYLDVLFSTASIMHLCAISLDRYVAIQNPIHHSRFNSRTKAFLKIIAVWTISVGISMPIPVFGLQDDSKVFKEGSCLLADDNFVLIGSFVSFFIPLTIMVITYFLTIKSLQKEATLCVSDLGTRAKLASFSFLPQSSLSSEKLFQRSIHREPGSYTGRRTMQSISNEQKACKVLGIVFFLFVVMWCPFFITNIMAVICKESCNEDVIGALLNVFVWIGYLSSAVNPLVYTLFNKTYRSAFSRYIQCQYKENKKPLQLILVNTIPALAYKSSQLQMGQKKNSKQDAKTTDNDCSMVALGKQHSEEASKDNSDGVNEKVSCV
5-hydroxytryptamine receptor 5A (Homo sapiens), sequence (P47898 whole entry): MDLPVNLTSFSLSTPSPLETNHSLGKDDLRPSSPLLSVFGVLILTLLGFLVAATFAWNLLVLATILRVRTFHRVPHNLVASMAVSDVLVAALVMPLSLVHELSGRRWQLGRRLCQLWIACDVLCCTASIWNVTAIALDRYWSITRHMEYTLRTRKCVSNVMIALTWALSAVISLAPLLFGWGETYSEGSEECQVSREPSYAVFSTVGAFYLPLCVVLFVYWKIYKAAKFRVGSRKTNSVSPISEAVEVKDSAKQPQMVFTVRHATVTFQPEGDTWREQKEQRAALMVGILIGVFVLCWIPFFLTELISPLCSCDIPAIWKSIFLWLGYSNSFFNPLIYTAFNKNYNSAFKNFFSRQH
5-hydroxytryptamine receptor 6 (Homo sapiens), sequence (P50406 whole entry): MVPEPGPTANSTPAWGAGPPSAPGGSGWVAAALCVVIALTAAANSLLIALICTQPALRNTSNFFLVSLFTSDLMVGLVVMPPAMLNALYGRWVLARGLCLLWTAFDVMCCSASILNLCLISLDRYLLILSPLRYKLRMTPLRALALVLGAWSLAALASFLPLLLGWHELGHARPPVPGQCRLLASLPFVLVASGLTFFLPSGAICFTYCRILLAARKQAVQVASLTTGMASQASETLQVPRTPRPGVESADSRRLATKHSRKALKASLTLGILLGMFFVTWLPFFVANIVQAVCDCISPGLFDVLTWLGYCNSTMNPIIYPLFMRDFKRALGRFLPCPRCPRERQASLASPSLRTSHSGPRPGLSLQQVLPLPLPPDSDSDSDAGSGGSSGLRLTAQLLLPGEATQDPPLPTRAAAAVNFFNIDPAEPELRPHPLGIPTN
Adenosine receptor A2a, sequence (P29274 whole entry): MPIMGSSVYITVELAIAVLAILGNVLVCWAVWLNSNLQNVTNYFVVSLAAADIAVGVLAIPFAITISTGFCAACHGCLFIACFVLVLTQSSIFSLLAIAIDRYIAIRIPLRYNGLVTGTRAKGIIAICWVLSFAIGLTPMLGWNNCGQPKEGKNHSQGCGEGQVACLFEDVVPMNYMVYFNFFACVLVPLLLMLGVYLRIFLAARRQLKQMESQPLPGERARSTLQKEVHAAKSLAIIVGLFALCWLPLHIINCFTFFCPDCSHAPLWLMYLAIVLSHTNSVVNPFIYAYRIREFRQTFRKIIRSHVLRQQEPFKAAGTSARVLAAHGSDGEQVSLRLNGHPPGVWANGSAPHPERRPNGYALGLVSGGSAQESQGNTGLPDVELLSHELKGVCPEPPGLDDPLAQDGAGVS
5-hydroxytryptamine receptor 1E (Homo sapiens), sequence (P28566 whole entry): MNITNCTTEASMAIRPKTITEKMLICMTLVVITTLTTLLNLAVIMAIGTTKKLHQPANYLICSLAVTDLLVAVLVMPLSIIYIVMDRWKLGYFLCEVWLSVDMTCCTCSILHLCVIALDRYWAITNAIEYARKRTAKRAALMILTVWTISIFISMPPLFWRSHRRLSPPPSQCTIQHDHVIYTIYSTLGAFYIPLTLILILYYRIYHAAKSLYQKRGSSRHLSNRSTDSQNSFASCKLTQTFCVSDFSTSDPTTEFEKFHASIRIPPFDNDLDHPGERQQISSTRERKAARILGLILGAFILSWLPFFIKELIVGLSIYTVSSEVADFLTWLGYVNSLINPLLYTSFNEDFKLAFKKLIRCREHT
5-hydroxytryptamine receptor 2B, sequence (P41595 whole entry): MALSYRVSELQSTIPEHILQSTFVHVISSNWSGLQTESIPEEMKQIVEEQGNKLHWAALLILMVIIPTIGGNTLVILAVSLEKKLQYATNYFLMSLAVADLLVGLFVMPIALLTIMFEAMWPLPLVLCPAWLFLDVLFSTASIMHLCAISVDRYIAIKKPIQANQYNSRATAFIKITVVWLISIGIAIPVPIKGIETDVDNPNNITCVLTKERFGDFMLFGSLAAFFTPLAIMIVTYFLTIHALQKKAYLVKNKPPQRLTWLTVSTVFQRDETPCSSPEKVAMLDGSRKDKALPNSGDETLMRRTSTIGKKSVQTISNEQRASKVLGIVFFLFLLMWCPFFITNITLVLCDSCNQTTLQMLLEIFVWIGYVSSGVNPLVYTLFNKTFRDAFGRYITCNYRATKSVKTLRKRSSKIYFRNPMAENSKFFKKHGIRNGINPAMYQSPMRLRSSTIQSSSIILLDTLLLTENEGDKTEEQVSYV

| Structure (SMILES) | inhibition [1] [%] | inhibition [2] [%] | pKi [3] | inhibition [4] [%] | inhibition [5] [%] | Imax [6] [%] | inhibition [7] [%] | inhibition [8] [%] | inhibition [9] [%] | inhibition [10] [%] | inhibition [11] [%] | pKi [12] | inhibition [13] [%] | inhibition [14] [%] | inhibition [15] [%] | pKi (Adenosine receptor A1) | pKi [16] | pKi (Adenosine receptor A2a) | pKi (Adenosine receptor A3) |
| --- | --- | --- | --- | --- | --- | --- | --- | --- | --- | --- | --- | --- | --- | --- | --- | --- | --- | --- | --- |
| CCNC(=O)[C@H]1O[C@@H](n2cnc3c(N)ncnc32)[C@H](O)[C@@H]1O [NECA] | < 50 | < 50 | < 5.00 | < 50 | < 50 | 100 | < 50 | < 50 | < 50 | < 50 | < 50 | – | – | – | – | – | – | – | – |
| Nc1ncnc2c1ncn2[C@@H]1O[C@H](C(=O)NC2CC2)[C@@H](O)[C@H]1O | < 50 | < 50 | < 5.00 | < 50 | < 50 | – | < 50 | < 50 | < 50 | < 50 | < 50 | 5.85 | < 10 | < 10 | < 10 | – | – | – | – |
| OC[C@@]12C[C@@H]1[C@@H](n1cnc3c(N[C@H](C4CCC4)C4CC4)nc(Cl)nc31)[C@H](O)[C@@H]2O | < 50 | < 50 | < 5.00 | < 50 | < 50 | – | < 50 | < 50 | < 50 | < 50 | < 50 | – | > 50 | – | < 10 | 6.53 | 6.53 | 5.57 | – |
| CCC(CC)Nc1nc(Cl)nc2c1ncn2[C@H]1[C@H](O)[C@H](O)[C@]2(CO)C[C@H]12 | < 50 | < 50 | < 5.00 | < 50 | < 50 | – | < 50 | < 50 | < 50 | < 50 | < 50 | – | > 50 | – | 12 | 6.95 | 6.15 | 5.76 | 5.92 |
| CNc1nc(Cl)nc2c1ncn2[C@H]1[C@H](O)[C@H](O)[C@]2(CO)C[C@H]12 | < 50 | < 50 | < 5.00 | < 50 | < 50 | – | < 50 | < 50 | < 50 | < 50 | < 50 | 5.65 | > 50 | – | < 10 | – | – | – | – |
| OC[C@@]12C[C@@H]1[C@@H](n1cnc3c(N[C@@H](C4CCC4)C4CC4)nc(Cl)nc31)[C@H](O)[C@@H]2O | < 50 | < 50 | < 5.00 | < 50 | < 50 | – | < 50 | < 50 | < 50 | < 50 | < 50 | – | > 50 | – | < 10 | 6.84 | 6.57 | 5.40 | – |
| CC[C@@H](Nc1nc(Cl)nc2c1ncn2[C@H]1[C@H](O)[C@H](O)[C@]2(CO)C[C@H]12)C1CC1 | < 50 | < 50 | < 5.00 | < 50 | < 50 | – | < 50 | < 50 | < 50 | < 50 | < 50 | – | > 50 | – | < 10 | 7.12 | 6.43 | 5.73 | – |
| CC[C@H](Nc1nc(Cl)nc2c1ncn2[C@H]1[C@H](O)[C@H](O)[C@]2(CO)C[C@H]12)C1CC1 | < 50 | < 50 | < 5.00 | < 50 | < 50 | – | < 50 | < 50 | < 50 | < 50 | < 50 | – | > 50 | – | < 10 | 6.93 | 6.60 | 5.53 | – |

Source: ChEMBL document CHEMBL3862033 (J Med Chem, 2016)
